{"source": "paper PMC6704710", "about": "“Preclinical evaluation of 3D185, a novel potent inhibitor of FGFR1/2/3 and CSF-1R, in FGFR-dependent and macrophage-dominant cancer models” (Journal of Experimental & Clinical Cancer Research : CR, 2019)", "test_in_all_cases": "Eurofins kinase panel", "type_in_all_cases": "biochemical", "details_in_all_cases": "read-out: Inhibition rate (%)", "key": {"Hck(h) activated": {"molecular_target": "T1, Hck(h) activated (Homo sapiens, UniProt P08631)", "T1 construct": "purchased Eurofins (KinaseProfiler)", "T1 sequence (P08631 whole entry)": "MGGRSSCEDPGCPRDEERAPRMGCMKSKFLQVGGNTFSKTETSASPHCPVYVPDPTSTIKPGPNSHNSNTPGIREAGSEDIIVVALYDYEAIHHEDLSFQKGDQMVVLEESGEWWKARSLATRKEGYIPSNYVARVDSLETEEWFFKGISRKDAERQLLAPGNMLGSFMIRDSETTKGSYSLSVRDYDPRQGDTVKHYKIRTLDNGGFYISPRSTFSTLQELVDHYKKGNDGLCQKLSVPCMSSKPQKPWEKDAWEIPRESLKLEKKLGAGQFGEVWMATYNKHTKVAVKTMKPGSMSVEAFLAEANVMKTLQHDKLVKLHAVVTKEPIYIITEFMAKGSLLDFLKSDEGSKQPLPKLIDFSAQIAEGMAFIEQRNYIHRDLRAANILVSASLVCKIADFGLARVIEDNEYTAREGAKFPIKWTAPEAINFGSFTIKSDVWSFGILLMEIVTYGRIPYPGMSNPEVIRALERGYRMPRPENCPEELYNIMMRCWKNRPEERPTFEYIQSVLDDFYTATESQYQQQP"}, "PKG1α(h)": {"molecular_target": "T2, PKG1α(h) (Homo sapiens, UniProt Q13976)", "T2 construct": "purchased Eurofins (KinaseProfiler)", "T2 sequence (Q13976 1-671)": "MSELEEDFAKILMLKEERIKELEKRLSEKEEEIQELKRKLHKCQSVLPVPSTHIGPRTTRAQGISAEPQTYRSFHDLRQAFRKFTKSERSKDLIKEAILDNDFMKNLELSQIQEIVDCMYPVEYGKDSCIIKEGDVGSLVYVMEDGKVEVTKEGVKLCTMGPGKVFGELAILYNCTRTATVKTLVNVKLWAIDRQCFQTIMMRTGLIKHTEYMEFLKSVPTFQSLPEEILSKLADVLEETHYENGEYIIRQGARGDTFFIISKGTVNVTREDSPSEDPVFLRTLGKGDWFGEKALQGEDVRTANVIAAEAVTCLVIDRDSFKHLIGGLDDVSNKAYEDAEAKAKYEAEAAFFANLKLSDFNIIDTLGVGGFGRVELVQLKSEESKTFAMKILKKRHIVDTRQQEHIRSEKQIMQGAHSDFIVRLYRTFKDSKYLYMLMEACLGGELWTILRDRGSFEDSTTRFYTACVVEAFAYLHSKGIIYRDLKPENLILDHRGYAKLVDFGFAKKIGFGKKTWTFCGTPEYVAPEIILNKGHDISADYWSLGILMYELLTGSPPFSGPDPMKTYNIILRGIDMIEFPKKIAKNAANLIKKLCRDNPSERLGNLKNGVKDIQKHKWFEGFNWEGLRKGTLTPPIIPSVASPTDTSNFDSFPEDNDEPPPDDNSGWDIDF"}, "PI3KC2γ(h)": {"molecular_target": "T3, PI3KC2γ(h) (Homo sapiens, UniProt O75747)", "T3 construct": "purchased Eurofins (KinaseProfiler)", "T3 sequence (O75747 1-1486)": "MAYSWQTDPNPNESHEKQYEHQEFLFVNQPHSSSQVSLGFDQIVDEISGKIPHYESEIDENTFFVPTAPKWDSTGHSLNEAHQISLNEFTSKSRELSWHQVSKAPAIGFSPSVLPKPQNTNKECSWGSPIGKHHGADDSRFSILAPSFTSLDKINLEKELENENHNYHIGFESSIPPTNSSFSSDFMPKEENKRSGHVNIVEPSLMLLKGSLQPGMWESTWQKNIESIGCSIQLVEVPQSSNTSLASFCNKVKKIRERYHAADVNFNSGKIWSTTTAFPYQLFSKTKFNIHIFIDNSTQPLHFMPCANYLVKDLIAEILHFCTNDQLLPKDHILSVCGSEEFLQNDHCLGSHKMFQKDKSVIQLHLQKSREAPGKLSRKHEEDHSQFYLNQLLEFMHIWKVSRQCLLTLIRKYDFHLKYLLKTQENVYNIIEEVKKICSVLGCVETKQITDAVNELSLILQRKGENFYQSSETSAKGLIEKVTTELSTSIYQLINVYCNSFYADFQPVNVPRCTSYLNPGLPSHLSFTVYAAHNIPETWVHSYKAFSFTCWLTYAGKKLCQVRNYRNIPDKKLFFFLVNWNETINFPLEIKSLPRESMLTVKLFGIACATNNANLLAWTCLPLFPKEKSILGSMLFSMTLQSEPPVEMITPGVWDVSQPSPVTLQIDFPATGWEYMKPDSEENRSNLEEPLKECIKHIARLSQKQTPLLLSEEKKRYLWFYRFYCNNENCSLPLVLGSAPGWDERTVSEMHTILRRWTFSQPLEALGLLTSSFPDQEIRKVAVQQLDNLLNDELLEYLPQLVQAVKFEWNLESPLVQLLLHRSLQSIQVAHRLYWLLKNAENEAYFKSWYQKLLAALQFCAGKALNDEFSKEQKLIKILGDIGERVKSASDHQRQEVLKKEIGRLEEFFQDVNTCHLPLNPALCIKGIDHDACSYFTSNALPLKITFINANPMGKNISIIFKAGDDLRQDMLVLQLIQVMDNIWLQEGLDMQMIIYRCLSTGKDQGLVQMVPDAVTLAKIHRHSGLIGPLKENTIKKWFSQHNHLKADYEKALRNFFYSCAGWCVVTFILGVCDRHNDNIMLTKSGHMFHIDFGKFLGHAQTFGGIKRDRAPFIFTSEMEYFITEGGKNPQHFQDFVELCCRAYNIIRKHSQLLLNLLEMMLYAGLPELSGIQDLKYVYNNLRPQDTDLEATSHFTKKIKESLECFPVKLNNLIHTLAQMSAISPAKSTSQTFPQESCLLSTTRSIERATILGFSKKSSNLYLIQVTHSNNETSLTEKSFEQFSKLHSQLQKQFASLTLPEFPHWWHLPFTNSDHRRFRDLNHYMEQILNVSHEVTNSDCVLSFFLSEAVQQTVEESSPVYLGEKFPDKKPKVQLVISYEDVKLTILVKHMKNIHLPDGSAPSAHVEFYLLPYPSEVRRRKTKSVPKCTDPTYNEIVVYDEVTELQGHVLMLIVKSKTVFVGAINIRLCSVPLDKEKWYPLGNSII"}}, "data": [{"smiles": "COc1cc(OC)c(Cl)c(-c2ccc3c(NC(=O)c4ccc(N5CCNC(C)(C)C5)cc4)n[nH]c3n2)c1Cl", "note": "[3D185]", "values": [{"measurement": "inhibition at 0.01 µM", "setting": "Hck(h) activated; 10 nM", "result": 6, "unit": "%"}, {"measurement": "inhibition at 0.1 µM", "setting": "Hck(h) activated; 100 nM", "result": 44, "unit": "%"}, {"measurement": "inhibition at 1 µM", "setting": "Hck(h) activated; 1000 nM", "result": 87, "unit": "%"}, {"measurement": "inhibition at 0.01 µM", "setting": "PKG1α(h); 10 nM", "result": -1, "unit": "%"}, {"measurement": "inhibition at 0.1 µM", "setting": "PKG1α(h); 100 nM", "result": -2, "unit": "%"}, {"measurement": "inhibition at 1 µM", "setting": "PKG1α(h); 1000 nM", "result": 1, "unit": "%"}, {"measurement": "inhibition at 0.01 µM", "setting": "PI3KC2γ(h); 10 nM", "result": -4, "unit": "%"}, {"measurement": "inhibition at 0.1 µM", "setting": "PI3KC2γ(h); 100 nM", "result": -4, "unit": "%"}, {"measurement": "inhibition at 1 µM", "setting": "PI3KC2γ(h); 1000 nM", "result": 1, "unit": "%"}]}]}
